≈ marks a conversion by molar mass, not a printed value. Read-outs that look alike come from different tables or passages of the source.
What was measured:
C. glabrata isolates = assay: Broth microdilution susceptibility (CLSI M27-A3) at different medium pH; format: cell-based, Candida glabrata; conditions: for MIC range: 50% inhibition; for MIC range / MIC50 / MIC90: 10 vaginal isolates; for MIC50 / MIC90 / MIC: Nakaseomyces glabratus, 24 h; for MIC50: read-out: MIC50; for MIC90: read-out: MIC90; for MIC: read-out: MIC (50% inhibition)
Description: (§1) Ten strains each of C. glabrata and C. albicans vaginal isolates were tested. The strains were obtained from recent clinical trial patients with vulvovaginal candidiasis (VVC) prior to treatment. Candida strains were obtained from the Mycology Reference Library (MRL) at Case Western Reserve University School of Medicine, Ohio, United States.
(§2) Susceptibility testing was performed using a broth microdilution method, according to CLSI M27-A3 guidelines (CLSI. 2008. Reference Method for Broth Dilution Antifungal Susceptibility Testing of Yeasts; Approved Standard—Third Edition. Clinical and Laboratory Standards Institute, CLSI document M27-A3). Antifungals and concentrations tested were SCY-078 and micafungin (both at concentrations within the range of 0.015 to 8 μg/ml) and fluconazole (at concentrations within the range of 0.125 to 64 μg/ml). A 0.1-ml C. albicans and C. glabrata inoculum of 0.5-2.5×10^3 blastospores/ml in RPMI 1640 medium was added to each microdilution well. ATCC strains of Candida parapsilosis and Candida krusei QC isolates were also included concurrently to ensure quality control. Antifungal susceptibility testing was carried out for each isolate in RPMI 1640 at pH 7 (to mimic RPMI medium used in testing the susceptibility of yeast by the CLSI M-27A3 document), pH 5.7, and pH 4.5 (to mimic the pH of the vaginal cavity) by adjusting the pH of the media using NaOH or HCl. […] Agents Chemother., 43: 1383-1386 (1999).
(§3) […] SCY-078 powder was manufactured by Avista, Laboratories, NC. Micafungin and fluconazole were sourced from LGM Pharma.

C. albicans isolates = assay: as above; format: cell-based, Candida albicans; conditions: for MIC range / MIC50 / MIC90: 10 vaginal isolates; for MIC90: read-out: MIC90; for MIC: read-out: MIC (50% inhibition)
Description: as §1, §2, §3

[1] = pH 4.5, 50% inhibition, pH 4.5, 24 h
[2] = pH 5.72, 50% inhibition, pH 5.72, 24 h
[3] = pH 7, 50% inhibition, pH 7.0, 24 h

## OC(Cn1cncn1)(Cn1cncn1)c1ccc(F)cc1F [Fluconazole, reference compound]
C. glabrata isolates; pH 4.5, 24 h
  MIC range: 1 to 16 µg/mL
C. glabrata isolates; pH 5.72, 24 h
  MIC range: 2 to 16 µg/mL
C. glabrata isolates; pH 7.0, 24 h
  MIC range: 0.5 to 2 µg/mL
C. glabrata isolates; C. glabrata isolates
  increase in MIC50, pH 7 compared to pH 4.5: 8 fold
C. glabrata isolates; [1]
  MIC50: 8 µg/mL (≈ 26.1 µM)
  MIC90: 16 µg/mL (≈ 52.2 µM)
C. glabrata isolates; pH 4.5, C. glabrata MRL 32075, pH 4.5, 24 hours
  MIC: 8 µg/mL (≈ 26.1 µM)
C. glabrata isolates; pH 4.5, C. glabrata MRL 32232, pH 4.5, 24 hours
  MIC: 8 µg/mL (≈ 26.1 µM)
C. glabrata isolates; pH 4.5, C. glabrata MRL 32626, pH 4.5, 24 hours
  MIC: 8 µg/mL (≈ 26.1 µM)
C. glabrata isolates; pH 4.5, C. glabrata MRL 32993, pH 4.5, 24 hours
  MIC: 16 µg/mL (≈ 52.2 µM)
C. glabrata isolates; pH 4.5, C. glabrata MRL 33204, pH 4.5, 24 hours
  MIC: 8 µg/mL (≈ 26.1 µM)
C. glabrata isolates; pH 4.5, C. glabrata MRL 33960, pH 4.5, 24 hours
  MIC: 16 µg/mL (≈ 52.2 µM)
C. glabrata isolates; pH 4.5, C. glabrata MRL 33961, pH 4.5, 24 hours
  MIC: 1 µg/mL (≈ 3.27 µM)
C. glabrata isolates; pH 4.5, C. glabrata MRL 34339, pH 4.5, 24 hours
  MIC: 8 µg/mL (≈ 26.1 µM)
C. glabrata isolates; pH 4.5, C. glabrata MRL 34407, pH 4.5, 24 hours
  MIC: 8 µg/mL (≈ 26.1 µM)
C. glabrata isolates; pH 4.5, C. glabrata MRL 34576, pH 4.5, 24 hours
  MIC: 16 µg/mL (≈ 52.2 µM)
C. glabrata isolates; [2]
  MIC50: 8 µg/mL (≈ 26.1 µM)
  MIC90: 16 µg/mL (≈ 52.2 µM)
C. glabrata isolates; pH 5.72, C. glabrata MRL 32075, pH 5.72, 24 hours
  MIC: 8 µg/mL (≈ 26.1 µM)
C. glabrata isolates; pH 5.72, C. glabrata MRL 32232, pH 5.72, 24 hours
  MIC: 8 µg/mL (≈ 26.1 µM)
C. glabrata isolates; pH 5.72, C. glabrata MRL 32626, pH 5.72, 24 hours
  MIC: 8 µg/mL (≈ 26.1 µM)
C. glabrata isolates; pH 5.72, C. glabrata MRL 32993, pH 5.72, 24 hours
  MIC: 16 µg/mL (≈ 52.2 µM)
C. glabrata isolates; pH 5.72, C. glabrata MRL 33204, pH 5.72, 24 hours
  MIC: 8 µg/mL (≈ 26.1 µM)
C. glabrata isolates; pH 5.72, C. glabrata MRL 33960, pH 5.72, 24 hours
  MIC: 16 µg/mL (≈ 52.2 µM)
C. glabrata isolates; pH 5.72, C. glabrata MRL 33961, pH 5.72, 24 hours
  MIC: 2 µg/mL (≈ 6.53 µM)
C. glabrata isolates; pH 5.72, C. glabrata MRL 34339, pH 5.72, 24 hours
  MIC: 2 µg/mL (≈ 6.53 µM)
C. glabrata isolates; pH 5.72, C. glabrata MRL 34407, pH 5.72, 24 hours
  MIC: 8 µg/mL (≈ 26.1 µM)
C. glabrata isolates; pH 5.72, C. glabrata MRL 34576, pH 5.72, 24 hours
  MIC: 8 µg/mL (≈ 26.1 µM)
C. glabrata isolates; [3]
  MIC50: 1 µg/mL (≈ 3.27 µM)
  MIC90: 2 µg/mL (≈ 6.53 µM)
C. glabrata isolates; pH 7, C. glabrata MRL 32075, pH 7.0, 24 hours
  MIC: 2 µg/mL (≈ 6.53 µM)
C. glabrata isolates; pH 7, C. glabrata MRL 32232, pH 7.0, 24 hours
  MIC: 2 µg/mL (≈ 6.53 µM)
C. glabrata isolates; pH 7, C. glabrata MRL 32626, pH 7.0, 24 hours
  MIC: 1 µg/mL (≈ 3.27 µM)
C. glabrata isolates; pH 7, C. glabrata MRL 32993, pH 7.0, 24 hours
  MIC: 2 µg/mL (≈ 6.53 µM)
C. glabrata isolates; pH 7, C. glabrata MRL 33204, pH 7.0, 24 hours
  MIC: 2 µg/mL (≈ 6.53 µM)
C. glabrata isolates; pH 7, C. glabrata MRL 33960, pH 7.0, 24 hours
  MIC: 1 µg/mL (≈ 3.27 µM)
C. glabrata isolates; pH 7, C. glabrata MRL 33961, pH 7.0, 24 hours
  MIC: 1 µg/mL (≈ 3.27 µM)
C. glabrata isolates; pH 7, C. glabrata MRL 34339, pH 7.0, 24 hours
  MIC: 0.5 µg/mL (≈ 1.63 µM)
C. glabrata isolates; pH 7, C. glabrata MRL 34407, pH 7.0, 24 hours
  MIC: 1 µg/mL (≈ 3.27 µM)
C. glabrata isolates; pH 7, C. glabrata MRL 34576, pH 7.0, 24 hours
  MIC: 1 µg/mL (≈ 3.27 µM)
C. albicans isolates; 50% inhibition, pH 4.5, 24 h
  MIC range: 0.25 to 8 µg/mL
C. albicans isolates; 50% inhibition, pH 5.72, 24 h
  MIC50: < 0.125 µg/mL
  MIC range: <0.125 to 1 µg/mL
C. albicans isolates; 50% inhibition, pH 7.0, 24 h
  MIC range: <0.125 to 1 µg/mL
C. albicans isolates; Candida albicans, 24 h, pH 4.5, 50% inhibition, pH 4.5, 24 h, read-out: MIC50
  MIC50: 0.25 µg/mL (≈ 0.816 µM)
C. albicans isolates; Candida albicans, 24 h, pH 4.5, 50% inhibition, pH 4.5, 24 h
  MIC90: 1 µg/mL (≈ 3.27 µM)
C. albicans isolates; Candida albicans, 24 h, pH 4.5, C. albicans MRL 34366, pH 4.5, 24 hours
  MIC: 0.25 µg/mL (≈ 0.816 µM)
C. albicans isolates; Candida albicans, 24 h, pH 4.5, C. albicans MRL 34367, pH 4.5, 24 hours
  MIC: 1 µg/mL (≈ 3.27 µM)
C. albicans isolates; Candida albicans, 24 h, pH 4.5, C. albicans MRL 34372, pH 4.5, 24 hours
  MIC: 0.25 µg/mL (≈ 0.816 µM)
C. albicans isolates; Candida albicans, 24 h, pH 4.5, C. albicans MRL 34373, pH 4.5, 24 hours
  MIC: 0.5 µg/mL (≈ 1.63 µM)
C. albicans isolates; Candida albicans, 24 h, pH 4.5, C. albicans MRL 34374, pH 4.5, 24 hours
  MIC: 0.25 µg/mL (≈ 0.816 µM)
C. albicans isolates; Candida albicans, 24 h, pH 4.5, C. albicans MRL 34385, pH 4.5, 24 hours
  MIC: 0.25 µg/mL (≈ 0.816 µM)
C. albicans isolates; Candida albicans, 24 h, pH 4.5, C. albicans MRL 34389, pH 4.5, 24 hours
  MIC: 0.5 µg/mL (≈ 1.63 µM)
C. albicans isolates; Candida albicans, 24 h, pH 4.5, C. albicans MRL 34399, pH 4.5, 24 hours
  MIC: 8 µg/mL (≈ 26.1 µM)
C. albicans isolates; Candida albicans, 24 h, pH 4.5, C. albicans MRL 34408, pH 4.5, 24 hours
  MIC: 0.25 µg/mL (≈ 0.816 µM)
C. albicans isolates; Candida albicans, 24 h, pH 4.5, C. albicans MRL 34449, pH 4.5, 24 hours
  MIC: 0.5 µg/mL (≈ 1.63 µM)
C. albicans isolates; Candida albicans, 24 h, pH 5.72, 50% inhibition, pH 5.72, 24 h, read-out: MIC50
  MIC50: < 0.125 µg/mL
C. albicans isolates; Candida albicans, 24 h, pH 5.72, 50% inhibition, pH 5.72, 24 h
  MIC90: 0.25 µg/mL (≈ 0.816 µM)
C. albicans isolates; Candida albicans, 24 h, pH 5.72, C. albicans MRL 34366, pH 5.72, 24 hours
  MIC: < 0.125 µg/mL
C. albicans isolates; Candida albicans, 24 h, pH 5.72, C. albicans MRL 34367, pH 5.72, 24 hours
  MIC: 0.25 µg/mL (≈ 0.816 µM)
C. albicans isolates; Candida albicans, 24 h, pH 5.72, C. albicans MRL 34372, pH 5.72, 24 hours
  MIC: < 0.125 µg/mL
C. albicans isolates; Candida albicans, 24 h, pH 5.72, C. albicans MRL 34373, pH 5.72, 24 hours
  MIC: < 0.125 µg/mL
C. albicans isolates; Candida albicans, 24 h, pH 5.72, C. albicans MRL 34374, pH 5.72, 24 hours
  MIC: < 0.125 µg/mL
C. albicans isolates; Candida albicans, 24 h, pH 5.72, C. albicans MRL 34385, pH 5.72, 24 hours
  MIC: < 0.125 µg/mL
C. albicans isolates; Candida albicans, 24 h, pH 5.72, C. albicans MRL 34389, pH 5.72, 24 hours
  MIC: < 0.125 µg/mL
C. albicans isolates; Candida albicans, 24 h, pH 5.72, C. albicans MRL 34399, pH 5.72, 24 hours
  MIC: 1 µg/mL (≈ 3.27 µM)
C. albicans isolates; Candida albicans, 24 h, pH 5.72, C. albicans MRL 34408, pH 5.72, 24 hours
  MIC: 0.25 µg/mL (≈ 0.816 µM)
C. albicans isolates; Candida albicans, 24 h, pH 5.72, C. albicans MRL 34449, pH 5.72, 24 hours
  MIC: < 0.125 µg/mL
C. albicans isolates; Candida albicans, 24 h, pH 7, 50% inhibition, pH 7.0, 24 h, read-out: MIC50
  MIC50: 0.25 µg/mL (≈ 0.816 µM)
C. albicans isolates; Candida albicans, 24 h, pH 7, 50% inhibition, pH 7.0, 24 h
  MIC90: 0.25 µg/mL (≈ 0.816 µM)
C. albicans isolates; Candida albicans, 24 h, pH 7, C. albicans MRL 34366, pH 7.0, 24 hours
  MIC: < 0.125 µg/mL
C. albicans isolates; Candida albicans, 24 h, pH 7, C. albicans MRL 34367, pH 7.0, 24 hours
  MIC: 0.25 µg/mL (≈ 0.816 µM)
C. albicans isolates; Candida albicans, 24 h, pH 7, C. albicans MRL 34372, pH 7.0, 24 hours
  MIC: < 0.125 µg/mL
C. albicans isolates; Candida albicans, 24 h, pH 7, C. albicans MRL 34373, pH 7.0, 24 hours
  MIC: 0.25 µg/mL (≈ 0.816 µM)
C. albicans isolates; Candida albicans, 24 h, pH 7, C. albicans MRL 34374, pH 7.0, 24 hours
  MIC: 0.25 µg/mL (≈ 0.816 µM)
C. albicans isolates; Candida albicans, 24 h, pH 7, C. albicans MRL 34385, pH 7.0, 24 hours
  MIC: < 0.125 µg/mL
C. albicans isolates; Candida albicans, 24 h, pH 7, C. albicans MRL 34389, pH 7.0, 24 hours
  MIC: < 0.125 µg/mL
C. albicans isolates; Candida albicans, 24 h, pH 7, C. albicans MRL 34399, pH 7.0, 24 hours
  MIC: 1 µg/mL (≈ 3.27 µM)
C. albicans isolates; Candida albicans, 24 h, pH 7, C. albicans MRL 34408, pH 7.0, 24 hours
  MIC: 0.25 µg/mL (≈ 0.816 µM)
C. albicans isolates; Candida albicans, 24 h, pH 7, C. albicans MRL 34449, pH 7.0, 24 hours
  MIC: 0.25 µg/mL (≈ 0.816 µM)

— US20260000656A1, “ANTIFUNGAL AGENTS WITH ENHANCED ACTIVITY IN ACIDIC PH” (Scynexis, Inc., priority 2017, published 2026)
